Data taken from patent US6380198B1 (Laboratoire Medidom S.A., priority 1997, dated 2002).
Where “and” joins values, the source holds several entries; their conditions need not be identical. Equal values may be shown once.

Experiments:
[1] = test system: intraocular pressure of rabbits with ocular hypertension; assay: Intraocular pressure in rabbits with ocular hypertension induced by α-chymotrypsin; type: in vivo, rabbit (Vienna Blue, pigmented); details: for Intraocular pressure (mmHg) at the time (min): 30, average ± S.D. / Intraocular pressure (mmHg) at the time (min): 60, average ± S.D. / Intraocular pressure (mmHg) at the time (min): 90, average ± S.D. / Intraocular pressure (mmHg) at the time (min): 120, average ± S.D. / Intraocular pressure (mmHg) at the time (min): 180, average ± S.D. / Intraocular pressure (mmHg) at the time (min): 240, average ± S.D. / Intraocular pressure (mmHg) at the time (min): 0, average ± S.D. / Intraocular pressure (mmHg) at the time (min): 30 / Intraocular pressure (mmHg) at the time (min): 60 / Intraocular pressure (mmHg) at the time (min): 90 / Intraocular pressure (mmHg) at the time (min): 120 / Intraocular pressure (mmHg) at the time (min): 180 / Intraocular pressure (mmHg) at the time (min): 240 / Intraocular pressure (mmHg) at the time (min): 0: Table 4, 50 μl; for Intraocular pressure (mmHg) at the time (min): 30, average ± S.D. / Intraocular pressure (mmHg) at the time (min): 60, average ± S.D. / Intraocular pressure (mmHg) at the time (min): 90, average ± S.D. / Intraocular pressure (mmHg) at the time (min): 120, average ± S.D. / Intraocular pressure (mmHg) at the time (min): 180, average ± S.D. / Intraocular pressure (mmHg) at the time (min): 240, average ± S.D. / Intraocular pressure (mmHg) at the time (min): 0, average ± S.D.: average ± S.D. of 4 rabbits; for Intraocular pressure (mmHg) at the time (min): 30, average ± S.D. / Intraocular pressure (mmHg) at the time (min): 30: 30 min after instillation; for Intraocular pressure (mmHg) at the time (min): 60, average ± S.D. / Intraocular pressure (mmHg) at the time (min): 60: 60 min after instillation; for Intraocular pressure (mmHg) at the time (min): 90, average ± S.D. / Intraocular pressure (mmHg) at the time (min): 90: 90 min after instillation; for Intraocular pressure (mmHg) at the time (min): 120, average ± S.D. / Intraocular pressure (mmHg) at the time (min): 120: 120 min after instillation; for Intraocular pressure (mmHg) at the time (min): 180, average ± S.D. / Intraocular pressure (mmHg) at the time (min): 180: 180 min after instillation; for Intraocular pressure (mmHg) at the time (min): 240, average ± S.D. / Intraocular pressure (mmHg) at the time (min): 240: 240 min after instillation; for Intraocular pressure (mmHg) at the time (min): 0, average ± S.D. / Intraocular pressure (mmHg) at the time (min): 0: time 0 = 15 min before instillation (baseline); for Intraocular pressure (mmHg) at the time (min): 30 / Intraocular pressure (mmHg) at the time (min): 60 / Intraocular pressure (mmHg) at the time (min): 90 / Intraocular pressure (mmHg) at the time (min): 120 / Intraocular pressure (mmHg) at the time (min): 180 / Intraocular pressure (mmHg) at the time (min): 240 / Intraocular pressure (mmHg) at the time (min): 0: individual rabbit, right eye
Method: Rabbits of the same type as those described in the previous section were used for the following tests.
In the rabbit, the injection of this enzyme in the posterior chamber causes, after one month from the administration, an effect of ocular hypertension.
At the end of the quarantine period the rabbits were anaesthetised by intramuscular administration of ketamine hydrochloride and xylazine hydrochloride (RBI). The right eye was gently pushed outwardly after instilling 25 μl of Novesine® eye-drops, containing oxybuprocaine as an anaesthetic; then, a sterile solution of σ-chymotrypsin (SIGMA, Milan; 150 units in 100 μl of physiologic sterile solution) was injected in the posterior chamber of the right eye by means of a 30G sterile needle. After the administration of the enzyme, the eye was thoroughly washed with physiologic sterile solution in order to remove any traces of α-chymotrypsin which could damage the ocular tissues. Then, 2 drops of a commercial ophthalmic antibiotic solution (Colbiocin®, SIFI S.p.A., containing chloramphenicol, rolitetracycline, colistin methanesulphonate) were instilled. The treatment was carried out 3 times a day (at 8.00 a.m., 12.00 a.m. and 6.00 p.m.) for one week after the administration of α-chymotrypsin. The rabbits were employed in the tests after one month from the induction of ocular hypertension by means of the enzyme.
The rabbits, divided also in this case in groups of 4 animals, were treated by instillation of 50 μl of the product under test in the right conjunctival fornix.
The intraocular pressure in the treated eye was measured, according to the same procedure as in the previous tests, 15 minutes before the instillation of the eye-drops and 30, 60, 90, 120, 180 and 240 minutes after. The values obtained were statistically analysed according to the criteria mentioned in the foregoing.
The experimental conditions were exactly the same as before.

[2] = test system: intraocular pressure of rabbits showing normal baseline intraocular pressure; assay: Intraocular pressure in rabbits with normal intraocular pressure after topical instillation; type: in vivo, rabbit (Vienna Blue, pigmented); details: 50 μl eye-drops; 0.050% flunarizine, equimolar comparators, 0.5% timolol
Method: The effects of the agent of the invention on the intraocular pressure of rabbits showing normal baseline intraocular pressure were evaluated in comparison with the action of a placebo, and with that of various other calcium channel blocking agents. Female pigmented rabbits of the Vienna Blue strain were used (supplied by Charles River Italiana, of Calco (CO)). The age of the animals at the time of starting the experimentation was 9 weeks, and their weight was 2.0-2.5 kg.
The choice of a species with pigmented iris is due to the fact that the latter represents a reliable model for the evaluation of possible modifications of the intraocular pressure caused by the products under test. The strain chosen is genetically defined, so as to limit to a minimum the variability of the biological characteristics between one animal and the other.
The animals were kept in rooms maintained under constant and controlled conditions of temperature and humidity, illuminated for 12 hours a day with artificial light and with continuous renovation of the air. The feed consisted of a standard diet having a constant and known composition, and both feed and water were available ad libitum during the whole period of the test. The rabbits were stabled for 21 days before starting the test, so as to allow a sufficient acclimatation and to suitably evaluate the health conditions of the rabbits. Each experimental group consisted of 4 animals, which were allotted to the treatment groups in a randomised way.
Each different group of animals received, by instillation in the right conjunctival fornix, 50 μl of the following products:
The weight concentrations of the various agents under test are chosen so as to correspond to the same molar concentration.
The pressure in the treated eye was measured by flattening tonometer (TonopenXL®, Mentor), 15 minutes before the instillation of the eyerops (time 0) and then 30, 60, 90, 120, 180 and 240 minutes after. As a local anaesthetic, 5 minutes before carrying out each measurement 25 μl of a commercial ophthalmic solution containing 0.4% oxybuprocaine hydrochloride (Novesine®, Sandoz) was instilled. To carry out the measurement the rabbits were placed in a suitably designed cage, that prevents any sudden movement of the animal under test.
For each animal and at each of the times listed above the average of three subsequent measurements was calculated and recorded, each one said measurements being made after 1 minute from the previous one. The intraocular pressure values at the various times were compared with the values obtained before the treatment, by means of the Student's “t” test. The comparisons between different groups were made by processing the data by the variance analysis (ANOVA) and, where possible, by the Student's “t” test for the comparison of two different experimental groups. Values of p<0.05 were considered to be statistically significant.

[3] = eye-drops with 0.010% flunarizine
[4] = eye-drops with 0.050% flunarizine
[5] = eye-drops with 0.100% flunarizine

Fc1ccc(C(c2ccc(F)cc2)N2CCN(C/C=C/c3ccccc3)CC2)cc1 [flunarizine]
Effect on intraocular pressure in rabbits with ocular hypertension, in words ([1]; 50 μl eye-drops, 0.050% flunarizine, equimolar comparators, 0.5% timolol): effectiveness comparable to or better than that of timolol alone
Intraocular pressure (mmHg) at the time (min): 30, average ± S.D. [1, 3]: 55.0 ± 5.35 mmHg
Intraocular pressure (mmHg) at the time (min): 60, average ± S.D. [1, 3]: 52.7 ± 5.18 mmHg
Intraocular pressure (mmHg) at the time (min): 90, average ± S.D. [1, 3]: 52.5 ± 5.44 mmHg
Intraocular pressure (mmHg) at the time (min): 120, average ± S.D. [1, 3]: 55.7 ± 5.18 mmHg
Intraocular pressure (mmHg) at the time (min): 180, average ± S.D. [1, 3]: 56.5 ± 6.60 mmHg
Intraocular pressure (mmHg) at the time (min): 240, average ± S.D. [1, 3]: 57.5 ± 6.55 mmHg
Intraocular pressure (mmHg) at the time (min): 0, average ± S.D. [1, 3]: 57.5 ± 6.13 mmHg
Intraocular pressure (mmHg) at the time (min): 30 [1, 3]: 50 mmHg and 58 mmHg and 61 mmHg and 51 mmHg
Intraocular pressure (mmHg) at the time (min): 60 [1, 3]: 48 mmHg and 55 mmHg and 59 mmHg and 49 mmHg
Intraocular pressure (mmHg) at the time (min): 90 [1, 3]: 49 mmHg and 53 mmHg and 60 mmHg and 48 mmHg
Intraocular pressure (mmHg) at the time (min): 120 [1, 3]: 51 mmHg and 58 mmHg and 62 mmHg and 52 mmHg
Intraocular pressure (mmHg) at the time (min): 180 [1, 3]: 50 mmHg and 60 mmHg and 64 mmHg and 52 mmHg
Intraocular pressure (mmHg) at the time (min): 240 [1, 3]: 52 mmHg (2×) and 61 mmHg and 65 mmHg
Intraocular pressure (mmHg) at the time (min): 0 [1, 3]: 52 mmHg and 60 mmHg and 65 mmHg and 53 mmHg
Intraocular pressure (mmHg) at the time (min): 30, average ± S.D. [1, 4]: 39.5 ± 7.32 mmHg
Intraocular pressure (mmHg) at the time (min): 60, average ± S.D. [1, 4]: 37.7 ± 7.27 mmHg
Intraocular pressure (mmHg) at the time (min): 90, average ± S.D. [1, 4]: 40.7 ± 7.63 mmHg
Intraocular pressure (mmHg) at the time (min): 120, average ± S.D. [1, 4]: 42.2 ± 7.36 mmHg
Intraocular pressure (mmHg) at the time (min): 180, average ± S.D. [1, 4]: 47.0 ± 8.28 mmHg
Intraocular pressure (mmHg) at the time (min): 240, average ± S.D. [1, 4]: 47.2 ± 8.18 mmHg
Intraocular pressure (mmHg) at the time (min): 0, average ± S.D. [1, 4]: 47.7 ± 9.03 mmHg
Intraocular pressure (mmHg) at the time (min): 30 [1, 4]: 47 mmHg and 38 mmHg and 30 mmHg and 43 mmHg
Intraocular pressure (mmHg) at the time (min): 60 [1, 4]: 45 mmHg and 37 mmHg and 28 mmHg and 41 mmHg
Intraocular pressure (mmHg) at the time (min): 90 [1, 4]: 50 mmHg and 38 mmHg and 32 mmHg and 43 mmHg
Intraocular pressure (mmHg) at the time (min): 120 [1, 4]: 51 mmHg and 39 mmHg and 34 mmHg and 45 mmHg
Intraocular pressure (mmHg) at the time (min): 180 [1, 4]: 56 mmHg and 44 mmHg and 37 mmHg and 51 mmHg
Intraocular pressure (mmHg) at the time (min): 240 [1, 4]: 56 mmHg and 45 mmHg and 37 mmHg and 51 mmHg
Intraocular pressure (mmHg) at the time (min): 0 [1, 4]: 57 mmHg and 46 mmHg and 36 mmHg and 52 mmHg
Intraocular pressure (mmHg) at the time (min): 30, average ± S.D. [1, 5]: 42.2 ± 5.31 mmHg
Intraocular pressure (mmHg) at the time (min): 60, average ± S.D. [1, 5]: 39.2 ± 4.57 mmHg
Intraocular pressure (mmHg) at the time (min): 90, average ± S.D. [1, 5]: 43.0 ± 5.71 mmHg
Intraocular pressure (mmHg) at the time (min): 120, average ± S.D. [1, 5]: 45.0 ± 5.71 mmHg
Intraocular pressure (mmHg) at the time (min): 180, average ± S.D. [1, 5]: 48.5 ± 6.24 mmHg
Intraocular pressure (mmHg) at the time (min): 240, average ± S.D. [1, 5]: 49.7 ± 5.73 mmHg
Intraocular pressure (mmHg) at the time (min): 0, average ± S.D. [1, 5]: 49.7 ± 6.6 mmHg
Intraocular pressure (mmHg) at the time (min): 30 [1, 5]: 48 mmHg and 40 mmHg and 36 mmHg and 45 mmHg
Intraocular pressure (mmHg) at the time (min): 60 [1, 5]: 45 mmHg and 38 mmHg and 34 mmHg and 40 mmHg
Intraocular pressure (mmHg) at the time (min): 90 [1, 5]: 49 mmHg and 41 mmHg and 36 mmHg and 46 mmHg
Intraocular pressure (mmHg) at the time (min): 120 [1, 5]: 51 mmHg and 43 mmHg and 38 mmHg and 48 mmHg
Intraocular pressure (mmHg) at the time (min): 180 [1, 5]: 56 mmHg and 47 mmHg and 41 mmHg and 50 mmHg
Intraocular pressure (mmHg) at the time (min): 240 [1, 5]: 57 mmHg and 49 mmHg and 43 mmHg and 50 mmHg
Intraocular pressure (mmHg) at the time (min): 0 [1, 5]: 58 mmHg and 48 mmHg and 42 mmHg and 51 mmHg
Effect on intraocular pressure in rabbits with normal pressure, in words [2]: better performance in lowering the intraocular pressure than timolol alone
